Experimental data published in article PMC8659110, “Preliminary Study of New Gallium-68 Radiolabeled Peptide Targeting NRP-1 to Detect Brain Metastases by Positron Emission Tomography” (Molecules, 2021).
Like-named read-outs stand apart in the source and are kept apart here. One block for each compound: values may come before it. Where a SMILES comes first, the peptide text is derived from it. Primed or numbered codes have the meaning given here. Where no end group is shown, it is not given here. The star is where a group is joined. Cy5(nonsulfonated) = CN1C(=CC=CC=CC2=[N+](CCCCCC(=O)*)c3ccccc3C2(C)C)C(C)(C)c2ccccc21; NODAGA = O=C(O)CN1CCN(CC(=O)O)CCN(C(CCC(=O)*)C(=O)O)CC1; Cy5 = Cy5 fluorophore (fluorescent dye); NODAGA′ = chelator

Tests used:
[1] = Photophysical properties (absorption and fluorescence) in water; assay type: physicochemical; settings: for Fluorescence quantum yield (φF): λex = 590 nm
Experimental: All reactions involving cyanine5 compounds were performed in the dark. Preparative reverse-phase high-performance liquid chromatography (HPLC) was performed on SPOT PREP Liquid Chromatography (ARMEN Instrument, Saint-Avé, France) with a Pursuit 5-C18 column (5 μm, 21.2 × 150 mm; Varian). Pure compounds obtained were analyzed accordingly by LC-MS on a Shimadzu LCMS-2020 monitored by a Diode Array Detector SPD-M20A (Shimadzu, Marne la Vallée, France) using a Pursuit 5-C18 column (4.6 × 150 mm; Varian) (Varian, Agilent Technologies, Santa Clara, CA, USA). Absorption spectra were recorded on a Perkin-Elmer Lambda EZ210 (Perkin-Elmer, Courtaboeuf, France) double-beam UV–visible spectrophotometer. Fluorescence spectra were recorded on a Fluorolog-3 spectrofluorometer FL3-222 (Horiba Jobin Yvon, Longjumeau, France) with a thermostated cell compartment (25 °C) using a 450-W Xenon lamp. The fluorescence quantum yield (φF) was determined using tetraphenyl porphyrin (TPP) solution in toluene as the fluorescence standard (φF = 0.11).

[2] = system: MDA-MB-231 cells; assay: Proliferation assay, real-time cell tracking (IncuCyte), MDA-MB-231; assay type: cell-based; settings: for Doubling-time values (Time (h) ± SD): exponential phase
Experimental: (§1) The proliferation of MDA-MB-231 and HUVEC cells were investigated using a label-free, noninvasive IncuCyte® S3 live-cell imaging system (Sartorius, Germany). Cells were plated as described for metabolic activity placed in an incubator (Binder) at 37 °C. Cells were photographed at 2-h intervals using a 20× objective over several days. […] Phase–object confluence was calculated at each time point based on the segmentation of high-definition phase-contrast images using IncuCyte S3 2018B software and expressed in percentages. Experiments were performed in triplicate.
(§2) Cell doubling time (DT) was calculated using the following Equation (1):(1) DT=Tend−TstartLn2/LnCend−LnCstart where Tstart/Tend are the times at the start/end of the exponential growth phase. Cstart/Cend are the percentage of confluence of the cells at the start/end of the exponential growth phase.

[3] = target: NRP-1 recombinant chimeric protein; assay: Competitive binding assay with biotinylated VEGF-165 on recombinant NRP-1; settings: for IC50: in the presence of heparin, 2 h at room temperature, read-out: IC50 ± SD (displacement of 50% of b-VEGF-165); for Concentration needed to decrease the binding of b-VEGF-165 to NRP-1: only at high concentration
Text: (§3) We evaluated the binding capacity of compounds toward NRP-1 using two different techniques: (1) a competitive binding assay with biotinylated VEGF (b-VEGF-165), a natural ligand of NRP-1 immobilized on a microplate surface in the presence of heparin, which allowed calculating the IC50 (the concentration of compound that displaced 50% of b-VEGF-165), and (2) surface plasmon resonance (SPR), a sensitive, optical-based, label-free detection technology for the real-time monitoring of molecular interactions between injected analytes and ligands covalently attached to the surface of a sensor chip. This technique was used to calculate the KD. VEGF-165 was used as the positive control in these two techniques.
The binding of compounds for the NRP-1 protein was evaluated in terms of the half-maximal inhibitory concentration (IC50 values) through a competitive assay, as previously described. VEGF-165, the natural ligand of NRP-1, was used as the positive control. Briefly, the surfaces of Maxisorp microplates (Thermo Fisher Scientific, France) were coated with NRP-1 recombinant chimeric proteins (Bio-techne, France). The binding of compounds to NRP-1 was assessed using biotinylated VEGF-165 (b-VEGF-165) (AcroBioSystem, Interchim, France) in the presence of heparin (Bio-techne, France) in competition or not with various concentrations of compounds or unlabeled VEGF-165 (Bio-techne, France) as the positive control. After 2 h of incubation at room temperature, the plates were washed, and the amount of bound b-VEGF-165 was stained with streptavidin horseradish peroxidase conjugate (Bio-techne, France) and assayed. […] The results were expressed as the mean of the relative absorbance percentage to wells containing only blocking buffers of triplicate measurements. The affinities were estimated as the IC50 values (i.e., the concentration of compounds that displaced 50% of β-VEGF-165 binding) calculated using the one-site fit log-IC50 nonlinear analysis regression of GraphPad Prism 6 software (v 6.05, USA).

[4] = system: HUVEC cells; assay: Proliferation assay, real-time cell tracking (IncuCyte), HUVEC; assay type: cell-based, human; settings: for Doubling-time values (Time (h) ± SD): exponential phase
Experimental: as §1, §2

[5] = system: NRP-1 protein; parameters: method as in PMID 19464192, PMID 25645959; settings: previous studies; cited from earlier work
[6] = target: NRP-1; parameters: method as in PMID 22372770; settings: read-out: KD previously found; cited from earlier work
[7] = target: T1, recombinant rat NRP-1 protein (Rattus norvegicus, UniProt Q9QWJ9); assay: Surface plasmon resonance (SPR) on immobilized recombinant NRP-1; assay type: binding; settings: Figure S5, injected at 10 and 30 µM
T1 construct: purchased Bio-techne (France)
Text: as §3
The equilibrium dissociation constant (KD) was evaluated using surface plasmon resonance, based on Gries et al.. All experiments were performed at 25 °C using the BIACORE T200 instrument (GE Healthcare Biacore, Uppsala, Sweden). Sensor surfaces and other Biacore consumables were purchased from GE Healthcare Biacore (USA). […]
They flowed at a rate of 30 µL/min for 300 s at 25 °C. […] The equilibrium response was recorded 5 s before the end of the compound injection (time window: 5 s). […] The KD value was determined by fitting the response (RU) versus analyte concentration (µM) curve to a simple 1:1 interaction model with the BiaEvaluation 3.2 software (GE Healthcare). […]

[8] = assay type: physicochemical; settings: 2 h
Experimental: (§4) The stability of [^68Ga]Ga-NODAGA-K(Cy5)DKPPR was performed in various media, final formulated media, and plasma.
The final [^68Ga]Ga-NODAGA-K(Cy5)DKPPR was kept at room temperature and analyzed by radio-HPLC at the end of the synthesis and 1 h, 2 h, and 3 h after manufacturing.

[9] = assay type: in vitro ADME, rodent
Experimental: as §4
For the stability in plasma, 100 µL of [^68Ga]Ga-NODAGA-K(Cy5)DKPPR was added to 400 µL of fresh rodent plasma and was incubated at 37 °C for 0, 30, 60, and 120 min. After incubation, the solutions were treated with 400 µL of acetonitrile to precipitate the proteins, vortexed for 1 min, and then centrifuged (2500 rpm, 980 G, 5 min). The supernatant layer was analyzed by analytical radio-HPLC.

[10] = system: MDA-MB-231 tumor in the rat brain; parameters: species or system nude rat; settings: in vivo
Experimental: Breast cells from the MDA-MB-231 lineage (MDA-MB-231 (ATCC® HTB-26)) were induced by the vascular injection of 2.5 × 10^5 cells resuspended in a volume of 50 µL of RPMI medium (Merck, Molsheim, France) into the animal’s internal carotid.
PET recordings were obtained with a camera dedicated to small animal studies (Inveon, Siemens Preclinical Solutions, Knoxville, TN, USA). After rats anesthetized with isoflurane, 50 MBq of [^68Ga]Ga-NODAGA-K(Cy5)DKPPR (1st day) were injected as a bolus via a lateral tail vein. […]
The uptake values are expressed in SUV (Standardized Uptake Values), which are standardized fixation values relative to the animal’s weight and injected activity. Tissue time activity curves (TTACs) for tumors and various organ activities were determined by average SUVs in volumes of interest (VOI), which were drawn with dedicated software (Inveon Research Workplace 4.1, Siemens®, Knoxville, USA) on static images encompassing the whole acquisition. […]

Compound: CN1C(=CC=CC=CC2=[N+](CCCCCC(=O)NCCCC[C@H](NC(=O)CCC(C(=O)O)N3CCN(CC(=O)O)CCN(CC(=O)O)CC3)C(=O)N[C@@H](CC(=O)O)C(=O)N[C@@H](CCCCN)C(=O)N3CCC[C@H]3C(=O)N3CCC[C@H]3C(=O)N[C@@H](CCCNC(=N)N)C(=O)O)c3ccccc3C2(C)C)C(C)(C)c2ccccc21 (stereo partly shown) [^natGa-NODAGA-K(Cy5)DKPPR, metal not drawn] ({NODAGA}-K(Cy5(nonsulfonated))DKPPR-OH; C-terminus assumed)
Molar extinction coefficient (ε) [1]: 44,552 L mol^−1 cm^−1
Fluorescence quantum yield (φF) [1]: 61%
Doubling-time values (Time (h) ± SD) ([2]; MDA MB 231, 1 µM): 31 ± 1 h
Doubling-time values (Time (h) ± SD) ([2]; MDA MB 231, 10 µM): 32 ± 1 h
Proliferation of cells (confluence follow-up) ([2]; MDA-MB-231, 0–10 µM): did not modify
IC50 [3]: 0.1 µM
Proliferation of cells (confluence follow-up) ([4]; 0–10 µM): did not modify
Doubling-time values (Time (h) ± SD) ([4]; 1 µM): 30 ± 3 h
Doubling-time values (Time (h) ± SD) ([4]; 10 µM): 28 ± 2 h

Compound: ATWLPPR [ligand peptide of NRP-1 from previous studies]
IC50 [5]: 19 µM

Compound: [^68Ga]Ga-NODAGA-K(Cy5)DKPPR
In vitro stability, remaining stable [8]: > 95%
In vitro stability (time) [9]: > 120 min
In vitro stability, remaining stable ([9]; plasma, 2 h): > 95%
Time to plateau of normalized tumor TTAC after injection [10]: roughly 10 min

Now from value to compound, other results behind:

Molar extinction coefficient (ε) [1]: 209,000 L mol^−1 cm^−1
Fluorescence quantum yield (φF) [1]: 27%
Compound: C[N+]1=C(C=CC=CC=C2N(CCCCCC(=O)ON3C(=O)CCC3=O)c3ccccc3C2(C)C)C(C)(C)c2ccccc21.[Cl-] [Cy5-NHS, Cyanine5-NHS ester, reference compound]

IC50 [3]: 2 ± 1 µM
Compound: H-KDKPPR-OH [KDKPPR]
Doubling-time values (Time (h) ± SD) ([2]; MDA MB 231, 1 µM): 32 ± 1 h
Doubling-time values (Time (h) ± SD) ([2]; MDA MB 231, 10 µM): 33 ± 2 h
Doubling-time values (Time (h) ± SD) ([4]; 1 µM): 29 ± 2 h
Doubling-time values (Time (h) ± SD) ([4]; 10 µM): 30 ± 2 h
Kd [6]: 8.7 µM

IC50 [3]: 300 µM
Concentration needed to decrease the binding of b-VEGF-165 to NRP-1 [3]: > 100 µM
Compound: KRPKPD
SPR interaction toward NRP-1 (shape of curve) [7]: weak affinity or a nonspecific interaction

Shift of b-VEGF-165 binding to the receptor ([3]; used at 26 nM, positive control, data not shown): completely shifted
Compound: VEGF-165: natural ligand of NRP-1, positive control

Concentration needed to decrease the binding of b-VEGF-165 to NRP-1 [3]: > 100 µM
Compound: ^natGa-NODAGA-K(Cy5)RPKPD ({NODAGA′}-K(Cy5)RPKPD; also: NODAGA complexed with natGa)
Molar extinction coefficient (ε) [1]: 39,870 L mol^−1 cm^−1
Fluorescence quantum yield (φF) [1]: 79%
Doubling-time values (Time (h) ± SD) ([2]; MDA MB 231, 1 µM): 33 ± 1 h
Doubling-time values (Time (h) ± SD) ([2]; MDA MB 231, 10 µM): 33 ± 3 h
SPR interaction toward NRP-1 (shape of curve) [7]: weak affinity or a nonspecific interaction
Doubling-time values (Time (h) ± SD) ([4]; 1 µM): 27 ± 1 h
Doubling-time values (Time (h) ± SD) ([4]; 10 µM): 28 ± 1 h
